Bridge positions count the residues as written; N and C are the ends. Square brackets hold non-standard residues; d marks the D form. Peptide text beside a SMILES is read from it. Sar = CNCC(=O)O
Assays:
rat isolated uterus = assay type: cell-based; conditions: for AGONIST ACTIVITY: relative to Angiotensin II = 100; for agonist / antagonist character in words: footnotes of Table I
Description: ^b = Agonist Activity was measured via a rat isolated uterus bioassay
as described by Matsoukas et al., J. Med. Chem., 31, pp. 1418-1421 (1988)
Results are reported relative to Angiotensin II wherein Angiotensin II =
Analogs of Angiotensin II were synthesized, purified and bioassayed by method described by Matsoukas et al., J. Med. Chem., 31, pp. 1418-1421 (1988). 1,2-propanediol [Pr(OH)2 ] was dried by refluxing over calcium oxide for 8 hours, collected by distillation and stored over a molecular sieve. Water content was estimated by ^1 H NMR or by the Karl Fisher method. Isopropanol (PrOH) was of HPLC grade (Caledon Laboratories Ltd) and was expected to contain less than 1% water. Dimethyl sulfoxide (DMSO) and trifluoroethanol (TFE) were used without further treatment. Aqueous solvents were prepared from distilled water which had been passed through Fisher ion-exchange cartridges. N-acetyl-tyrosine-amide (NAYA) was obtained from Sigma. Sodium dodecylsulfate (SDS) was obtained from BDH biochemicals (specially pure) and was used without further treatment.
[Sar^1 ]Angiotensin II was synthesized by the solid phase technique and purified to homogeneity by reversed-phase HPLC using methods described by Matsoukas et al., J. Med. Chem. 31(7), pp. 1418-1421 (1988). The synthetic peptide gave the required amino acid analysis and appeared as a single product in two thin layer chromatography (TLC) systems. [Sar^1 ]Angiotensin II had 180% of the bioactivity of Angiotensin II in the rat uterus assay which is also described by Matsoukas et al., supra. Since HPLC afforded the trifluoroacetate salt of the peptide, [Sar^1 ]Angiotensin II was neutralized by passage through a column (1.5×3 cm) of carboxymethylcellulose (Whatman CM23) cation exchange resin. The peptide (10 mg) was first applied to the column in 0.01M ammonium acetate at pH 5 (5 ml) and then eluted with 0.5M ammonium acetate at pH 8 (10 ml). The effluent obtained at pH 8 was lyophilized thrice and 5 mg of the product was dissolved in 0.5 ml of DMSO-d6 and two drops of D2 O were added. Argon was bubbled through the sample for 5 minutes before the NMR tube was sealed.

[1] = agonist activity of oxytocin analog (assay not described)

Row | Compound | AGONIST ACTIVITY (rat isolated uterus) | agonist / antagonist character in words (rat isolated uterus) | further results
1 | CC[C@H](C)[C@H](NC(=O)[C@H](Cc1ccc(O)cc1)NC(=O)[C@@H](NC(=O)[C@H](CCCNC(=N)N)NC(=O)CNC)C(C)C)C(=O)N[C@@H](Cc1ccccc1)C(=O)N1CCC[C@H]1C(=O)N[C@@H](Cc1ccccc1)C(=O)O [C] (H-[Sar]RVYIFPF-OH) | 7 |  | 
2 | CC[C@H](C)[C@H](NC(=O)[C@H](Cc1ccc(O)cc1)NC(=O)[C@@H](NC(=O)[C@H](CCCNC(=N)N)NC(=O)CNC)C(C)C)C(=O)N[C@@H](Cc1c[nH]cn1)C(=O)N1CCC[C@H]1C(=O)N[C@@H](CC1CCCCC1)C(=O)O [D] | 4 | Potent receptor antagonist with residual agonist activity | 
3 | CC[C@H](C)[C@H](NC(=O)[C@H](Cc1ccc(O)cc1)NC(=O)[C@@H](NC(=O)[C@@H](N)CCCNC(=N)N)C(C)C)C(=O)N[C@@H](Cc1c[nH]cn1)C(=O)N1CCC[C@H]1C(=O)N[C@@H](CC1CCCCC1)C(=O)O [E] | 5 | Potent receptor antagonist with residual agonist activity | 
4 | CC[C@H](C)[C@H](NC(=O)[C@H](Cc1ccc(O)cc1)NC(=O)[C@@H](NC(=O)[C@H](CCCNC(=N)N)NC(=O)CNC)C(C)C)C(=O)N[C@@H](Cc1c[nH]cn1)C(=O)N1CCC[C@H]1C(=O)N[C@@H](Cc1ccccc1)C(N)=O [F] | 0.2 |  | 
5 | CC[C@H](C)[C@H](NC(=O)[C@H](Cc1ccc(O)cc1)NC(=O)[C@@H](NC(=O)[C@H](CCCNC(=N)N)NC(=O)CNC)C(C)C)C(=O)N[C@@H](C)C(=O)N1CCC[C@H]1C(=O)N[C@@H](Cc1ccccc1)C(=O)O [G] (H-[Sar]RVYIAPF-OH) | less than 0.1 |  | 
6 | CC[C@H](C)[C@H](NC(=O)[C@H](Cc1ccc(O)cc1)NC(=O)[C@@H](NC(=O)[C@H](CCCNC(=N)N)NC(=O)CNC)C(C)C)C(=O)N[C@@H](Cc1c[nH]cn1)C(=O)N1CCC[C@@H]1C(=O)N[C@@H](Cc1ccccc1)C(=O)O [I] | less than 0.1 |  | 
7 | CC[C@H](C)[C@H](NC(=O)[C@@H]1CCCN1C(=O)[C@H](Cc1c[nH]cn1)NC(=O)[C@@H](NC(=O)[C@H](Cc1ccc(O)cc1)NC(=O)[C@@H](NC(=O)[C@H](CCCNC(=N)N)NC(=O)CNC)C(C)C)[C@@H](C)CC)C(=O)O [J] | less than 0.1 | Potent receptor antagonist | 
8 | CC[C@H](C)[C@H](NC(=O)[C@H](Cc1ccc(O)cc1)NC(=O)[C@@H](NC(=O)[C@@H](N)CCCNC(=N)N)C(C)C)C(=O)N[C@@H](Cc1c[nH]cn1)C(=O)N1CCC[C@H]1C(=O)N[C@@H](Cc1ccccc1)C(=O)O [K] | 10 |  | 
9 | CC[C@H](C)[C@H](NC(=O)[C@H](Cc1ccc(O)cc1)NC(=O)[C@@H](NC(=O)[C@H](CCCNC(=N)N)NC(=O)CNC)C(C)C)C(=O)N[C@@H](Cc1c[nH]cn1)C(=O)N1CCC[C@H]1C(=O)N[C@@H](Cc1ccccc1)C(N)=O [Ligand F, [Sar^1 Phe--NH2^8]Angiotensin II] |  | lack of significant agonist activity | 
10 | CC[C@H](C)[C@H](NC(=O)[C@H](Cc1ccc(O)cc1)NC(=O)[C@@H](NC(=O)[C@H](CCCNC(=N)N)NC(=O)CNC)C(C)C)C(=O)N[C@@H](C)C(=O)N1CCC[C@H]1C(=O)N[C@@H](Cc1ccccc1)C(=O)O [Ligand G, [Sar^1 Ala^6]Angiotensin II] (H-[Sar]RVYIAPF-OH) |  | lack of significant agonist activity | 
11 | CC[C@H](C)[C@@H]1NC(=O)[C@H](Cc2ccc(O)cc2)NC(=O)[C@@H](N)CSSC[C@@H](C(=O)N2CCC[C@H]2C(=O)N[C@@H](CC(C)C)C(=O)NCC(N)=O)NC(=O)[C@H](C)NC(=O)[C@H](CCC(N)=O)NC1=O [[Ala^5]] (H-CYIQACPLG-NH2; disulfide 1-6) |  |  | agonist activity in words [1]: no agonist activity
12 | CC[C@H](C)[C@H](NC(=O)[C@H](Cc1ccc(O)cc1)NC(=O)[C@@H](NC(=O)[C@H](CCCNC(=N)N)NC(=O)CNC)C(C)C)C(=O)N[C@@H](Cc1c[nH]cn1)C(=O)N1CCC[C@H]1C(=O)N[C@@H](Cc1ccccc1)C(=O)O [[Sar^1]Angiotensin II, reference compound] |  |  | bioactivity relative to Angiotensin II (rat isolated uterus; rat uterus assay): 180%
13 | [Sar^1 Tyr(Me)^4 ]Angiotensin II [reference compound] | 100 |  | 
14 | [Tyr(Me)^4 ]Angiotensin III [B, reference compound] | 27 |  | 

Source: patent US5459077A, “Methods for modelling tertiary structures of biologically active ligands and for modelling agonists and antagonists thereto” (PepMetics, Inc., priority 1993, dated 1995)
